Measured values from patent US9884813B1, “Pharmaceutically acceptable salts of B-guanidinopropionic acid with improved properties and uses thereof” (Rgenix, Inc., priority 2017, dated 2018).

Columns and labels:
Type in all cases: physicochemical
Bulk and tapped density = test: Bulk and tapped density
Procedure: The bulk density of β-GPA oxalate (Pattern 18 B), succinate (Pattern 15A), and fumarate (Pattern 7A) were determined by pouring in a known amount of salt (g) into a measuring cylinder. The volume (Vi) occupied by the salt was recorded and the bulk density (ρB) was determined using equation 1. ρB=g/Vi (1)
The tapped densities of the salts were determined using a Tap density analyzer. A known amount of salt was poured (g) into a measuring cylinder and the initial volume was recorded and tapped using a Tap density analyzer. The final volume (Vf) after tapping was recorded and the tapped density (ρT) was calculated by using equation 2. ρT=g/Vf (2)

[1] = Solid form stability of 2:1 β-GPA fumarate at various temperature/humidity conditions (XRPD); settings: for XRPD: a week
Procedure: The solid form stability of β-GPA fumarate was studied at various temperature/humidity conditions as listed in Table 23 for a week using saturated salt solution chambers. The samples were analyzed by XRPD after a week.

[2] = Dynamic vapor sorption (DVS) with XRPD of the post-DVS sample; settings: for solid form by XRPD after the DVS experiment: post DVS sample
Procedure: Samples were analyzed using an Aquadyne DVS-2 gravimetric water sorption analyzer. The relative humidity was adjusted between 2-95% and the weight of the sample was continuously monitored and recorded.
[…]: β-GPA maleate (1:1) Form II, β-GPA fumarate (1:1), β-GPA maleate (2:1), β-GPA succinate (2:1) and β-GPA oxalate (1:1) were analyzed by DVS experiment followed by XRPD analysis of the sample at the end of the experiment.
Sample 2162-64-1 was analyzed by DVS in triplicate and the post DVS samples were characterized by XRPD to identify the form at the end of the experiment.

[3] = Gravimetric solubility of 2:1 β-GPA fumarate in solvents
Procedure: Solubility of β-GPA fumarate was measured gravimetrically in fifteen different solvents and solvent mixtures at 15 and 45° C. About 100 mg of the compound was dispensed in ten volumes (1 mL) of the solvent/solvent mixture and slurried for 48 hours. Table 24 represents the solubility of β-GPA fumarate in different solvents. After 48 hours the vials were centrifuged. The supernatant was collected and left for slow evaporation under vacuum at 45° C. and solubility was determined. The solids obtained after centrifugation and evaporation were analyzed by XRPD.

[4] = Carr's index and Hausner ratio (predicted flowability); settings: Table 18, scale of Table 17
[5] = as above
Source text: The flow properties of β-GPA are sub-optimal. The bulk density is 0.389 g/cc and the tapped density is 0.627 g/cc. These measurements can be used to calculate the Carr's index and Hausner ratio for a substance. The Carr's index and Hausner ratio are indicators of flowability of a powder. As known in the art, e.g., as described in Carr R. L. Chem. Eng. 1965, 72, 163-168, the relationship to flowability of a powder to the Carr's index and Hausner ratio is based on the scale shown in Table 6 below.
Carr's index or Carr's compressibility index (C) is an indication of the compressibility of a powder. It can be calculated using the equation below: Carr's index (C)=100(Vi−Vf)/Vi (3) A Carr's index greater than 25 is considered to be an indication of poor flowability while a value below 15 is an indication of good flowability.
The Hausner ratio is a number that is correlated to the flowability of a powder or granular material. It is calculated by using the equation below: Hausner ratio=Vi/Vf (4)

[6] = Flowability measurement using Hanson Flodex unit
Source text: Method: A cylindrical vessel is secured to the stand and above that a funnel is also secured such that the bottom of the funnel is close to the vessel. A powder load of ≈50-60 g is then poured through the funnel into the middle of the cylinder. The lever device is pulled to open the hole in the disk quickly and without vibration. If a powder slowly flows through the small-diameter holes, leaving a cavity shaped like an upside-down, truncated cone, the test is considered positive. If a powder flocculates in bulk and falls abruptly, forming a cylindrical cavity, the test is considered negative. […] If the experiment is negative, the powder is tested again with a disk having a larger hole.

[7] = Temperature cycling experiments of 2:1 β-GPA fumarate
Procedure: The following (Table 26) experiments were performed to isolate possible polymorphic forms of 2:1 β-GPA fumarate.

[8] = calculated from bulk and tapped volumes

Bulk density (Bulk and tapped density): 0.576 g/cc | Tapped density (Bulk and tapped density): 0.613 g/cc | XRPD ([1]; 20° C., 43% relative humidity): Pattern 7A | XRPD ([1]; 20° C., 59% relative humidity): Pattern 7A | XRPD ([1]; 20° C., 73% relative humidity): Pattern 7A | XRPD ([1]; 20° C., >95% relative humidity): Pattern 7A | XRPD ([1]; 40° C., 82% relative humidity): Pattern 7A | XRPD ([1]; 60° C., 50% relative humidity): Pattern 7A | XRPD ([1]; 60° C., 80% relative humidity): Pattern 7A | solid form stability ([1]; RH >95% at 20° C.): stable | moisture uptake during the DVS experiment [2]: less than 0.1% | solid form by XRPD after the DVS experiment ([2]; listed as 2162-64-1): identical to β-GPA fumarate (Pattern 7A) | Solubility ([3]; Acetone, 15° C.): <1000 µg/mL | Solubility ([3]; Acetone, 45° C.): <1000 µg/mL | Solubility ([3]; Acetone:H2O (9:1), 15° C.): 2500 µg/mL | Solubility ([3]; Acetone:H2O (9:1), 45° C.): 4100 µg/mL | Solubility ([3]; DCM, 15° C.): <1000 µg/mL | Solubility ([3]; DCM, 45° C.): 500 µg/mL | Solubility ([3]; EtOAc, 15° C.): <1000 µg/mL | Solubility ([3]; EtOAc, 45° C.): <1000 µg/mL | Solubility ([3]; EtOH, 15° C.): <1000 µg/mL | Solubility ([3]; EtOH, 45° C.): <1000 µg/mL | Solubility ([3]; H2O:MeOH:IPA (3:5.5:5), 15° C.): <1000 µg/mL | Solubility ([3]; H2O:MeOH:IPA (3:5.5:5), 45° C.): <1000 µg/mL | Solubility ([3]; Heptane, 15° C.): <1000 µg/mL | Solubility ([3]; Heptane, 45° C.): <1000 µg/mL | Solubility ([3]; IPA, 15° C.): <1000 µg/mL | Solubility ([3]; IPA, 45° C.): <1000 µg/mL | Solubility ([3]; IPA:H2O (9:1), 15° C.): 1640 µg/mL | Solubility ([3]; IPA:H2O (9:1), 45° C.): 2100 µg/mL | Solubility ([3]; MeCN, 15° C.): <1000 µg/mL | Solubility ([3]; MeCN, 45° C.): <1000 µg/mL | Solubility ([3]; MeOH, 15° C.): ~1000 µg/mL | Solubility ([3]; MeOH, 45° C.): 2730 µg/mL | Solubility ([3]; MeOH:H2O (9:1), 15° C.): 9200 µg/mL | Solubility ([3]; MeOH:H2O (9:1), 45° C.): 11200 µg/mL | Solubility ([3]; TBME, 15° C.): 3000 µg/mL | Solubility ([3]; TBME, 45° C.): 28900 µg/mL | Solubility ([3]; THF:H2O (9:1), 15° C.): 2080 µg/mL | Solubility ([3]; THF:H2O (9:1), 45° C.): 4120 µg/mL | Solubility ([3]; Water, 15° C.): 30000 µg/mL | Solubility ([3]; Water, 45° C.): >100000 µg/mL | XRPD analysis of the precipitates after 48 hours slurries ([3]; fifteen solvents and solvent mixtures at 15 and 45° C.): no form transformations | Flow character [4]: Excellent (1-10) | Carr's index [5, 8]: 5.9 | Hausner ratio [5, 8]: 1.063 | Flow character ([5]; predicted, scale of Table 6 (Carr's index)): Excellent (1-10) | Did solid pass? ([6]; Disc pore size 4 mm): No | Did solid pass? ([6]; Disc pore size 5 mm): Yes | Did solid pass? ([6]; Disc pore size 6 mm): Yes | Did solid pass? ([6]; Disc pore size 12 mm): Yes | Result (XRPD) ([7]; 50° C. 2 hours, RT, 50° C. 48 hours): Pattern 7A | Result (XRPD) ([7]; dry ice-acetone 30 minutes, RT): Pattern 7A | Result (XRPD) ([7]; heated to 150° C. and brought to room temperature, cycle repeated three times): Pattern 7A | Result (XRPD) ([7]; vacuum oven 130° C. 2 hours, RT, 130° C. 48 hours): Pattern 7A
Compound: N=C(N)NCCC(=O)O.N=C(N)NCCC(=O)O.O=C(O)/C=C/C(=O)O [β-GPA fumarate (2:1)]
XRPD pattern ([1]; RH >95% at room temperature, 48 hours): retain its original XRPD pattern (Pattern 7A) | solid form by XRPD after the DVS experiment ([2]; listed as 2:1 fumarate salt): did not exhibit any dissociation of the salt
